Results taken from patent US20110142866A1, “PEPTIDE ANALOGUES AND CONJUGATES THEREOF” (Eldrug S.A., priority 2007, published 2011).

Experiments:
MOG35-55 induced EAE [1] = assay: MOG35-55 EAE, spinal cord histopathology; assay type: in vivo, C57BL/6 mice
Method: On day 17 (acute phase of EAE) and day 46 post-EAE-induction (chronic phase of EAE) animals were subjected to transcardial perfusion with 4% paraformaldehyde in PBS. Brains and spinal cords were removed, post-fixed in the same fixative for approximately 20 hours, routinely processed for paraffin embedding and sectioned at […]. Sections from animals of acute and chronic phases of the disease, were then stained using the following methods: a) a modified Bielschowsky silver impregnation staining method combined with haematoxylin, for the simultaneous evaluation of axonal injury, axonal loss and inflammatory processes in EAE as previously described in detail [Lourbopoulos et, al., 2007]; b) Luxol fast blue staining counterstained with Nuclear fast Red for the detection of demyelinating areas within the CNS of animals, using routine histopathological protocols. Pathological evaluation was performed under a light microscope (Olympus Axioplan-2) by two blinded investigators and photos were taken using a CCD camera (Nikon). Five randomly selected longitudinal sections per tissue (brains and spinal cords) were evaluated as follows: for each animal, each section was evaluated under 20× or 40× optical fields (depending on the object of study) so as to cover the entire area of the section. […] Depending on the object of interest the following scales were used to perform the evaluation: (a) For axonal injury (AI), the following scale was used: 0=no AI, 1+=scattered dystrophic injured axons without any spheroid or ovoid, 2+=mild AI with the presence of at least one spheroid or ovoid, 3+=moderate AI, 4+=severe AI; generally injured axons were defined and identified as spheroids and ovoids (which represent axonotmesis), and dilated (dystrophic) axons which represent injured axons not yet being cut. (b) For axonal loss (AL): 0=normal axonal density, 1+=<25% AL, 2+=mild AL (26-50%), 3+=moderate to severe (51-75%) AL, 4+=severe AL (>75%); various degrees of decreased density of axons was attributed to axonal loss and evaluated accordingly. (c) For infiltrations: number of infiltrating cells per optical field and number of infiltrating cells per infiltration. (d) Demyelination was evaluated under 40× optical fields; using a prefrontal grid, we measured the area of demyelination and the total area of white matter in each optical field and then subtracted the % of demyelination present in each optical field.

MOG35-55 induced EAE [2] = assay: Chronic MOG35-55 EAE, clinical evaluation; assay type: in vivo, C57BL/6 mice; conditions: for overall clinical effect on MOG35-55 EAE: co-injection at disease induction at 1:1 ratio
Stability to proteolysis = assay type: in vitro ADME; conditions: compared to linear counterparts

CC[C@H](C)[C@@H]1NC(=O)[C@H](CC(N)=O)NC(=O)[C@H](CCCCN)NC(=O)[C@H](Cc2ccccc2)NC(=O)[C@H](Cc2ccccc2)NC(=O)[C@H](Cc2c[nH]cn2)NC(=O)[C@H](C(C)C)NC(=O)[C@H](C(C)C)NC(=O)[C@@H]2CCCN2C(=O)[C@H](CC(N)=O)NC(=O)[C@H](CCC(=O)O)NC(=O)[C@@H]2CCCN2C(=O)[C@H]([C@@H](C)O)NC(=O)[C@H](CCCNC(=N)N)NC(=O)[C@@H]2CCCN2C(=O)[C@H]([C@@H](C)O)NC(=O)[C@H](C(C)C)NC1=O [cyclo(83-99)MBP83-99, cyclo(83-99)E N P V V H F F K N I V T P R T P]
demyelination of the white matter of spinal cords (MOG35-55 induced EAE [1]; acute phase): 9.58±10.5%
effect on axonal injury vs control (MOG35-55 induced EAE [1]; acute phase): mild but statistical significant beneficial effect
effect on axonal loss vs control (MOG35-55 induced EAE [1]; acute phase): mild effect
infiltrating cells per optical field (MOG35-55 induced EAE [1]; acute phase): 290.8±277.7
inflammatory cells per infiltration (MOG35-55 induced EAE [1]; acute phase): 53.72±62.0
axonal injury per 20x field, % within GROUP (MOG35-55 induced EAE [1]; acute phase, score 0): 14.3%
axonal loss per 20x field, % within GROUP (MOG35-55 induced EAE [1]; acute phase, score 0): 16.5%
axonal injury per 20x field, % within GROUP (MOG35-55 induced EAE [1]; acute phase, score 1+): 45.1%
axonal loss per 20x field, % within GROUP (MOG35-55 induced EAE [1]; acute phase, score 1+): 36.1%
axonal injury per 20x field, % within GROUP (MOG35-55 induced EAE [1]; acute phase, score 2+): 22.3%
axonal loss per 20x field, % within GROUP (MOG35-55 induced EAE [1]; acute phase, score 2+): 31.6%
axonal injury per 20x field, % within GROUP (MOG35-55 induced EAE [1]; acute phase, score 3+): 11.3%
axonal loss per 20x field, % within GROUP (MOG35-55 induced EAE [1]; acute phase, score 3+): 12.0%
axonal injury per 20x field, % within GROUP (MOG35-55 induced EAE [1]; acute phase, score 4+): 6.0%
axonal loss per 20x field, % within GROUP (MOG35-55 induced EAE [1]; acute phase, score 4+): 3.8%
axonal injury vs control (MOG35-55 induced EAE [1]; chronic phase): not different
axonal loss vs control (MOG35-55 induced EAE [1]; chronic phase): less
demyelination of the white matter of spinal cords (MOG35-55 induced EAE [1]; chronic phase): 7.65±11.4%
infiltrating cells per optical field (MOG35-55 induced EAE [1]; chronic phase): 10.71±39.0
inflammatory cells per infiltration (MOG35-55 induced EAE [1]; chronic phase): 6.0±15.8
axonal injury per 20x field, % within GROUP (MOG35-55 induced EAE [1]; chronic phase, score 0): 49.3%
axonal loss per 20x field, % within GROUP (MOG35-55 induced EAE [1]; chronic phase, score 0): 51.4%
axonal injury per 20x field, % within GROUP (MOG35-55 induced EAE [1]; chronic phase, score 1+): 29.0%
axonal loss per 20x field, % within GROUP (MOG35-55 induced EAE [1]; chronic phase, score 1+): 26.8%
axonal injury per 20x field, % within GROUP (MOG35-55 induced EAE [1]; chronic phase, score 2+): 13.0%
axonal loss per 20x field, % within GROUP (MOG35-55 induced EAE [1]; chronic phase, score 2+): 10.9%
axonal injury per 20x field, % within GROUP (MOG35-55 induced EAE [1]; chronic phase, score 3+): 8.0%
axonal loss per 20x field, % within GROUP (MOG35-55 induced EAE [1]; chronic phase, score 3+): 10.1%
axonal injury per 20x field, % within GROUP (MOG35-55 induced EAE [1]; chronic phase, score 4+): 0.7%
axonal loss per 20x field, % within GROUP (MOG35-55 induced EAE [1]; chronic phase, score 4+): 0.7%
mean day of disease onset (MOG35-55 induced EAE [2]; acute phase experiment): 12.00±0.81
mean clinical score vs control (MOG35-55 induced EAE [2]; acute phase, days 15, 16 and 17): statistical significant different
mean Areas Under the Curve (mAUC) (MOG35-55 induced EAE [2]; acute phase, sacrifice day 17, 300 μg co-injected 1:1 with MOG35-55): 13.32±2.55
mean day of disease onset (MOG35-55 induced EAE [2]; chronic phase experiment): 17.00±11.74
Mean Maximal Clinical Scores (MMS) (MOG35-55 induced EAE [2]; chronic phase, day 46): 2.375±1.45
mean Areas Under the Curve (mAUC) (MOG35-55 induced EAE [2]; chronic phase, day 46): 51.08±36.58
mean clinical score vs control (MOG35-55 induced EAE [2]; chronic phase, entire observation period): lower mean clinical score
overall clinical effect on MOG35-55 EAE (MOG35-55 induced EAE [2]): mild beneficial effect
overall clinical effect on MOG35-55 EAE (MOG35-55 induced EAE [2]; listed as cyclic MBP83-99): mild preventive benefit
stability to the proteolysis (Stability to proteolysis): increases stability to the proteolysis
